In ChEMBL document CHEMBL6071211, “Invention of VH-937, a Potent HIV-1 Maturation Inhibitor with the Potential for Infrequent Oral Dosing in Humans” (ACS Med Chem Lett, 2024):

Columns and labels:
[1] = tested on: Human immunodeficiency virus 1; experiment: In vitro antiviral activity against fully replicating HIV1 NL4-3 harboring Gag A364V mutant; type: functional, organism-based
[2] = tested on: Human immunodeficiency virus 1; experiment: In vitro antiviral activity against fully replicating HIV1 NL4-3 harboring Gag T332S/V362I/prR41G mutant; type: functional, organism-based
[3] = tested on: Human immunodeficiency virus 1; experiment: In vitro antiviral activity against fully replicating wild type HIV1 NL4-3; type: functional, organism-based
[4] = tested on: Human immunodeficiency virus 1; experiment: In vitro antiviral activity against fully replicating wild type HIV1 NL4-3 in presence of human serum; type: functional, organism-based
[5] = tested on: Human immunodeficiency virus 1; experiment: Binding affinity to HIV1 Gag A364V mutant assessed as dissociation half life by virus-like particle (VLP) assay
[6] = Human immunodeficiency virus 1, NL4-3

Compound | EC50 [1, 6] [nM] | EC50 [2, 6] [nM] | EC50 [3, 6] [nM] | EC50 [4, 6] [nM] | T1/2 [5] [min] | EC50 [1] [nM] | EC50 [3] [nM] | EC50 [4] [nM] | EC50 [2] [nM]
C=C(C)[C@@H]1CC[C@]2(NCCN3CCS(=O)(=O)CC3)CC[C@]3(C)[C@H](CC[C@@H]4[C@@]5(C)CC=C(C6=CCC(COc7ccncc7)(C(=O)O)CC6)C(C)(C)[C@@H]5CC[C@]43C)[C@@H]12 (mixture of isomers) | 34.6 | 14.2 | 2.1 | 33.3 | – | – | – | – | –
C=C(C)[C@@H]1CC[C@]2(NCCN3CCS(=O)(=O)CC3)CC[C@]3(C)[C@H](CC[C@@H]4[C@@]5(C)CC=C(C6=CC[C@@](COc7ncccc7C#N)(C(=O)O)CC6)C(C)(C)[C@@H]5CC[C@]43C)[C@@H]12 [ZEGRUVIRIMAT] | 52.6 | 5.8 | 2.5 | 41.1 | – | – | – | – | –
C=C(C)[C@@H]1CC[C@]2(NCCN3CCS(=O)(=O)CC3)CC[C@]3(C)[C@H](CC[C@@H]4[C@@]5(C)CC=C(C6=CCC(COc7ccccn7)(C(=O)O)CC6)C(C)(C)[C@@H]5CC[C@]43C)[C@@H]12 (mixture of isomers) | 11.3 | 14.3 | 2.6 | 61 | – | – | – | – | –
C=C(C)[C@@H]1CC[C@]2(NCCN3CCS(=O)(=O)CC3)CC[C@]3(C)[C@H](CC[C@@H]4[C@@]5(C)CC=C(C6=CC[C@@](COc7cnccn7)(C(=O)O)CC6)C(C)(C)[C@@H]5CC[C@]43C)[C@@H]12 | 21.4 | 14.7 | 2.8 | 48.1 | – | – | – | – | –
C=C(C)[C@@H]1CC[C@]2(NCCN3CCS(=O)(=O)CC3)CC[C@]3(C)[C@H](CC[C@@H]4[C@@]5(C)CC=C(C6=CC[C@@](COc7ccccn7)(C(=O)O)CC6)C(C)(C)[C@@H]5CC[C@]43C)[C@@H]12 | 7.2 | 19.2 | 3.5 | 44.9 | – | – | – | – | –
C=C(C)[C@@H]1CC[C@]2(NCCN3CCS(=O)(=O)CC3)CC[C@]3(C)[C@H](CC[C@@H]4[C@@]5(C)CC=C(C6=CCC(COc7cccnn7)(C(=O)O)CC6)C(C)(C)[C@@H]5CC[C@]43C)[C@@H]12 (mixture of isomers) | 3.5 | 47.2 | 2.6 | 59.8 | – | – | – | – | –
C=C(C)[C@@H]1CC[C@]2(NCCN3CCS(=O)(=O)CC3)CC[C@]3(C)[C@H](CC[C@@H]4[C@@]5(C)CC=C(C6=CCC(COc7ccc(F)cc7)(C(=O)O)CC6)C(C)(C)[C@@H]5CC[C@]43C)[C@@H]12 (mixture of isomers) | 21.7 | 26.5 | 4.7 | 74.5 | – | – | – | – | –
C=C(C)[C@@H]1CC[C@]2(NCCN3CCS(=O)(=O)CC3)CC[C@]3(C)[C@H](CC[C@@H]4[C@@]5(C)CC=C(C6=CCC(COc7cccnc7)(C(=O)O)CC6)C(C)(C)[C@@H]5CC[C@]43C)[C@@H]12 (mixture of isomers) | 26.9 | 5.8 | 1.9 | 36.7 | – | – | – | – | –
C=C(C)[C@@H]1CC[C@]2(NCCN3CCS(=O)(=O)CC3)CC[C@]3(C)[C@H](CC[C@@H]4[C@@]5(C)CC=C(C6=CCC(COc7ccccc7)(C(=O)O)CC6)C(C)(C)[C@@H]5CC[C@]43C)[C@@H]12 (mixture of isomers) | 19.7 | 27.8 | 5 | 58.4 | – | – | – | – | –
C=C(C)[C@@H]1CC[C@]2(NCCN3CCS(=O)(=O)CC3)CC[C@]3(C)[C@H](CC[C@@H]4[C@@]5(C)CC=C(C6=CCC(COc7ncccn7)(C(=O)O)CC6)C(C)(C)[C@@H]5CC[C@]43C)[C@@H]12 (mixture of isomers) | 4.5 | 12.6 | 1.8 | 52.1 | – | – | – | – | –
C=C(C)[C@@H]1CC[C@]2(NCCN3CCS(=O)(=O)CC3)CC[C@]3(C)[C@H](CC[C@@H]4[C@@]5(C)CC=C(C6=CCC(COc7ccc(C#N)cn7)(C(=O)O)CC6)C(C)(C)[C@@H]5CC[C@]43C)[C@@H]12 (mixture of isomers) | 28.8 | 232 | 1.9 | 34.3 | – | – | – | – | –
C=C(C)[C@@H]1CC[C@]2(NCCN3CCS(=O)(=O)CC3)CC[C@]3(C)[C@H](CC[C@@H]4[C@@]5(C)CC=C(C6=CCC(COc7ccncn7)(C(=O)O)CC6)C(C)(C)[C@@H]5CC[C@]43C)[C@@H]12 (mixture of isomers) | 10 | 68.6 | 1.7 | 23.4 | – | – | – | – | –
C=C(C)[C@@H]1CC[C@]2(NCCN3CCS(=O)(=O)CC3)CC[C@]3(C)[C@H](CC[C@@H]4[C@@]5(C)CC=C(C6=CCC(COc7cc(C#N)ccn7)(C(=O)O)CC6)C(C)(C)[C@@H]5CC[C@]43C)[C@@H]12 (mixture of isomers) | 71.8 | 64.1 | 0.9 | 46.3 | – | – | – | – | –
C=C(C)[C@@H]1CC[C@]2(NCCN3CCS(=O)(=O)CC3)CC[C@]3(C)[C@H](CC[C@@H]4[C@@]5(C)CC=C(C6=CCC(COCc7ccccc7)(C(=O)O)CC6)C(C)(C)[C@@H]5CC[C@]43C)[C@@H]12 (mixture of isomers) | 49.8 | 22.1 | 7.8 | 98.2 | – | – | – | – | –
C=C(C)[C@@H]1CC[C@]2(NCCN3CCS(=O)(=O)CC3)CC[C@]3(C)[C@H](CC[C@@H]4[C@@]5(C)CC=C(C6=CCC(COc7ccccc7F)(C(=O)O)CC6)C(C)(C)[C@@H]5CC[C@]43C)[C@@H]12 (mixture of isomers) | 27.3 | 19.3 | 6.1 | 58.4 | – | – | – | – | –
C=C(C)[C@@H]1CC[C@]2(NCCN3CCS(=O)(=O)CC3)CC[C@]3(C)[C@H](CC[C@@H]4[C@@]5(C)CC=C(C6=CCC(COc7cccc(Cl)c7)(C(=O)O)CC6)C(C)(C)[C@@H]5CC[C@]43C)[C@@H]12 (mixture of isomers) | 16.8 | 49.2 | 10.7 | 22 | – | – | – | – | –
C=C(C)[C@@H]1CC[C@]2(NCCN3CCS(=O)(=O)CC3)CC[C@]3(C)[C@H](CC[C@@H]4[C@@]5(C)CC=C(C6=CC[C@@](CF)(C(=O)O)CC6)C(C)(C)[C@@H]5CC[C@]43C)[C@@H]12 [FIPRAVIRIMAT] | – | – | – | 13.9 | < 1 | – | – | – | –
C=C(C)[C@@H]1CC[C@]2(NCCN3CCS(=O)(=O)CC3)CC[C@]3(C)[C@H](CC[C@@H]4[C@@]5(C)CC=C(C6=CCC(COc7nccs7)(C(=O)O)CC6)C(C)(C)[C@@H]5CC[C@]43C)[C@@H]12 (mixture of isomers) | 2.4 | 38.9 | 3.6 | 24.5 | – | – | – | – | –
C=C(C)[C@@H]1CC[C@]2(NCCN3CCS(=O)(=O)CC3)CC[C@]3(C)[C@H](CC[C@@H]4[C@@]5(C)CC=C(C6=CCC(COc7cccc(C#N)n7)(C(=O)O)CC6)C(C)(C)[C@@H]5CC[C@]43C)[C@@H]12 (mixture of isomers) | 26.4 | 15.8 | 13.9 | 15.7 | – | – | – | – | –
C=C(C)[C@@H]1CC[C@]2(NCCN3CCS(=O)(=O)CC3)CC[C@]3(C)[C@H](CC[C@@H]4[C@@]5(C)CC=C(C6=CCC(COc7ccc(Cl)cc7)(C(=O)O)CC6)C(C)(C)[C@@H]5CC[C@]43C)[C@@H]12 (stereo in doubt; 8) | – | 49.6 | – | – | – | 75.3 | 29.4 | 149 | –
C=C(C)[C@@H]1CC[C@]2(NCCN3CCS(=O)(=O)CC3)CC[C@]3(C)[C@H](CC[C@@H]4[C@@]5(C)CC=C(C6=CCC(COc7ccc(Cl)cc7)(C(=O)O)CC6)C(C)(C)[C@@H]5CC[C@]43C)[C@@H]12 (stereo in doubt; 9) | – | – | – | – | – | 244 | 3.2 | 9.9 | 85.3
C=C(C)[C@@H]1CC[C@]2(NCCN3CCS(=O)(=O)CC3)CC[C@]3(C)[C@H](CC[C@@H]4[C@@]5(C)CC=C(C6=CC[C@](COc7ccccn7)(C(=O)O)CC6)C(C)(C)[C@@H]5CC[C@]43C)[C@@H]12 | 5.8 | 8.8 | 1.6 | 54.9 | – | – | – | – | –
C=C(C)[C@@H]1CC[C@]2(NCCN3CCS(=O)(=O)CC3)CC[C@]3(C)[C@H](CC[C@@H]4[C@@]5(C)CC=C(C6=CCC(COc7nnnn7C)(C(=O)O)CC6)C(C)(C)[C@@H]5CC[C@]43C)[C@@H]12 (mixture of isomers) | 24.2 | 6.8 | 1.7 | 36 | – | – | – | – | –
C=C(C)[C@@H]1CC[C@]2(NCCN3CCS(=O)(=O)CC3)CC[C@]3(C)[C@H](CC[C@@H]4[C@@]5(C)CC=C(C6=CCC(COc7ccccc7Cl)(C(=O)O)CC6)C(C)(C)[C@@H]5CC[C@]43C)[C@@H]12 (mixture of isomers) | 20.1 | 23.1 | 9.7 | 59.7 | – | – | – | – | –
C=C(C)[C@@H]1CC[C@]2(NCCN3CCS(=O)(=O)CC3)CC[C@]3(C)[C@H](CC[C@@H]4[C@@]5(C)CC=C(c6ccc(C(=O)O)cc6)C(C)(C)[C@@H]5CC[C@]43C)[C@@H]12 | – | – | – | – | < 1 | – | – | – | –
C=C(C)[C@@H]1CC[C@]2(NCCN3CCS(=O)(=O)CC3)CC[C@]3(C)[C@H](CC[C@@H]4[C@@]5(C)CC=C(C6=CCC(COc7cccc(F)c7)(C(=O)O)CC6)C(C)(C)[C@@H]5CC[C@]43C)[C@@H]12 (mixture of isomers) | 55.7 | 34.3 | 8.3 | 14.8 | – | – | – | – | –
